Test results: article PMC10783514, “Synthesis of peptide–siRNA conjugates via internal sulfonylphosphoramidate modifications and evaluation of their in vitro activity” (Nucleic Acids Research, 2023)

Biological target: T1, human GLP1R (Homo sapiens, UniProt P43220)
T1 construct: expressed in transfected cells
Experiment: GLP1R activity assay (CRE/luciferase reporter, cAMP potency)
Assay type: cell-based
Details: BHK cells stably co-expressing human GLP1R and CRE luciferase reporter; 3 h at 37°C; 8 concentrations; four-parameter logistic fit (Hill slope = 1); mean of n = 3 independent experiments; read-out: EC50, activation of GLP1R
Description: GLP1R activity was measured through cyclic adenosine monophosphate (cAMP) potency using a clonal BHK cell line that stably co-express human GLP1R and the cAMP response element (CRE) luciferase reporter gene, essentially as previously reported ([33]). Briefly, frozen stocks of assay-ready cells were thawed to 37°C, washed once with PBS, and diluted to 100 000 cells/ml in assay buffer (DMEM without phenol red supplemented with 1× GlutaMAX, 10 mM HEPES, 1 w/v% ovalbumin, and 0.1 v/v% Pluronic F-68). Serial dilutions (10-fold dilutions in assay buffer, 8 concentrations for each compound) were made for GLP1–siRNA conjugates and free peptides in 96 well dilution plates using a Biomek i7 liquid handler. Then, 50 μl of each dilution were transferred to 96-well assay plates to which 50 μl of the diluted cell suspension was added (5000 cells/well). Plates were incubated for 3 h at 37°C in 5% CO2, then left at room temperature for 5 min before 100 μl SteadyLite Plus (PerkinElmer) was added to each well. Plates were sealed from light and incubated at room temperature for 30 min while gently shaking before luminescence was detected on a Biotek Synergy 2 plate reader.
This is performed by using a luciferase reporter under the control of CRE in recombinant BHK cells constitutively expressing human GLP1R. […]

T1 sequence (P43220 24-463): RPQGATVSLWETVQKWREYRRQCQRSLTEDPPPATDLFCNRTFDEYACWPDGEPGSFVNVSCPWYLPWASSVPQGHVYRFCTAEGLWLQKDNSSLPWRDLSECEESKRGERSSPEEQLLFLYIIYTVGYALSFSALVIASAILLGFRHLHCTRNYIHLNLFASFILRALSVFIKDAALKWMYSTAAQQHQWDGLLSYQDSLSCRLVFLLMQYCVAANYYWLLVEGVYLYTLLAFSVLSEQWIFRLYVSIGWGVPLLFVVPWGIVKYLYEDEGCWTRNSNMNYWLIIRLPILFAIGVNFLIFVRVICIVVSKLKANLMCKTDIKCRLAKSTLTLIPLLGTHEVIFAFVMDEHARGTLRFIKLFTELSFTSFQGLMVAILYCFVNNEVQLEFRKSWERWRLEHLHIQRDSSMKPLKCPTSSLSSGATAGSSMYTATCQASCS

Work on `CC[C@H](C)[C@H](NC(=O)[C@H](Cc1ccccc1)NC(=O)[C@H](CCC(=O)O)NC(=O)[C@H](CCCNC(=N)N)NC(=O)[C@H](C)NC(=O)[C@H](C)NC(=O)[C@H](CCC(N)=O)NC(=O)CNC(=O)[C@H](CCC(=O)O)NC(=O)[C@H](CC(C)C)NC(=O)[C@H](Cc1ccc(O)cc1)NC(=O)[C@H](CO)NC(=O)[C@H](CO)NC(=O)[C@@H](NC(=O)[C@H](CC(=O)O)NC(=O)[C@H](CO)NC(=O)[C@@H](NC(=O)[C@H](Cc1ccccc1)NC(=O)[C@@H](NC(=O)CNC(=O)[C@H](CCC(=O)O)NC(=O)[C@H](C)NC(=O)[C@@H](N)Cc1c[nH]cn1)[C@@H](C)O)[C@@H](C)O)C(C)C)C(=O)N[C@@H](C)C(=O)N[C@@H](Cc1c[nH]c2ccccc12)C(=O)N[C@@H](CC(C)C)C(=O)N[C@H](C(=O)N[C@@H](CCCNC(=N)N)C(=O)NCC(=O)N[C@@H](CCCNC(=N)N)C(=O)NCC(=O)N[C@@H](CCCCN)C(=O)O)C(C)C` [A] yielded an EC50 of 9 pM.
